# ChEMBL document CHEMBL3758118, “Effects of a novel carbocyclic analog of pyrrolo[2,3-d]pyrimidine nucleoside on pleiotropic induction of cell death in prostate cancer cells with different androgen responsiveness” (2016)
# Activity calls are given as the source filed them. The calls are words filed in the database; no cut-off is given here.
# Legend:
# [1] = test system: DU-145; experiment: Induction of apoptosis in human DU145 cells assessed as increase in p21(Cip1) expression at 6 uM after 48 hrs by western blotting analysis; format: functional, cell-based
# [2] = test system: LNCaP; experiment: Antiproliferative activity against human LNCaP C4-2 cells assessed as cell viability at 6 uM after 24 hrs by MTT assay; format: functional, cell-based
# [3] = test system: LNCaP; experiment: Induction of apoptosis in human LNCAP cells assessed as caspase-3 expression at 6 uM after 24 hrs cell pretreated with 100 uM AR inhibitor flutamide by western blot analysis; format: functional, cell-based
# [4] = test system: LNCaP; experiment: Induction of apoptosis in human LNCAP cells assessed as increase active caspase3 level at 6 uM after 24 hrs by western blotting analysis; format: functional, cell-based
# [5] = test system: LNCaP; experiment: Antiproliferative activity against human LNCaP C4-2 cells assessed as cell viability at 9 uM after 48 hrs by MTT assay; format: functional, cell-based
# [6] = test system: DU-145; experiment: Induction of apoptosis in human DU145 cell assessed as p21(Cip1) expression at 6 uM after 24 hrs by western blotting analysis; format: functional, cell-based
# [7] = test system: DU-145; experiment: Induction of apoptosis in human DU145 cells assessed as cleaved PARP level at 6 uM after 24 hrs by western blotting analysis; format: functional, cell-based
# [8] = test system: LNCaP; experiment: Induction of apoptosis in human LNCAP cells assessed as increase in cleaved PARP level at 6 uM after 24 hrs by western blotting analysis; format: functional, cell-based
# [9] = test system: LNCaP; experiment: Induction of apoptosis in human LNCAP cells assessed as increase in p21(Cip1) expression at 6 uM after 24 hrs by western blotting analysis; format: functional, cell-based
# [10] = test system: LNCaP; experiment: Induction of apoptosis in human LNCaP C4-2 cells assessed as increase in cleaved PARP level at 9 uM after 48 hrs by western blot analysis; format: functional, cell-based
# [11] = test system: DU-145; experiment: Induction of apoptosis in human DU145 cells assessed as chromatin condensation at 6 uM after 24 hrs by transmission electron microscopic analysis; format: functional, cell-based
# [12] = test system: LNCaP; experiment: Induction of apoptosis in human LNCAP cells assessed as caspase-8 expression at 6 uM after 24 hrs cell pretreated with 100 uM AR inhibitor flutamide by western blot analysis; format: functional, cell-based
# [13] = test system: LNCaP; experiment: Cell cycle distribution in human LNCAP cells assessed as accumulation at sub-G1 phase at 6 uM after 24 hrs in presence of 100 uM AR inhibitor flutamide by propidium-iodide staining based flow cytometry; format: functional
# [14] = test system: DU-145; experiment: Induction of apoptosis in human DU145 cells assessed as accumulation of autophagic vacuoles in cytoplasm at 6 uM after 24 hrs by fluorescence microscopic analysis; format: functional, cell-based
# [15] = test system: LNCaP; experiment: Induction of apoptosis in human LNCaP C4-2 cells assessed as increase in cleaved PARP level at 9 uM after 48 hrs in presence of 100 uM AR inhibitor flutamide by western blot analysis; format: functional, cell-based
# [16] = test system: LNCaP; experiment: Induction of apoptosis in human LNCaP C4-2 cells assessed as increase in caspase3 level at 9 uM after 48 hrs by western blotting analysis; format: functional, cell-based
# [17] = test system: LNCaP; experiment: Antiproliferative activity against human LNCaP C4-2 cells assessed as cell viability at 6 uM after 48 hrs by MTT assay; format: functional, cell-based
# [18] = Cell cycle distribution in human LNCaP C4-2 cells assessed as accumulation at sub-G1 phase at 9 uM after 48 hrs by propidium iodide staining based flow cytometry; format: functional
# [19] = test system: LNCaP; experiment: Induction of apoptosis in human LNCaP C4-2 cells assessed as increase in p21(Cip1) expression at 9 uM after 48 hrs by western blotting analysis; format: functional, cell-based
# [20] = test system: LNCaP; experiment: Induction of apoptosis in human LNCAP cells assessed as formation of crescent shaped apoptotic bodies at 6 uM after 24 hrs by transmission electron microscopic analysis; format: functional, cell-based
# [21] = test system: LNCaP; experiment: Induction of apoptosis in human LNCAP cells assessed as chromatin condensation at 6 uM after 24 hrs by transmission electron microscopic analysis; format: functional, cell-based
# [22] = test system: LNCaP; experiment: Antiproliferative activity against human LNCAP cells assessed as cell viability at 6 uM after 24 hrs by MTT assay; format: functional, cell-based
# [23] = test system: LNCaP; experiment: Induction of apoptosis in human LNCAP cells assessed as cleaved PARP expression at 6 uM after 24 hrs cell pretreated with 100 uM AR inhibitor flutamide by western blot analysis; format: functional, cell-based
# [24] = test system: DU-145; experiment: Induction of apoptosis in human DU145 cells assessed as active caspase-3 level at 6 um after 24 hrs by western blotting analysis; format: functional, cell-based
# [25] = test system: LNCaP; experiment: Induction of apoptosis in human LNCaP C4-2 cells assessed as increase in p21(Cip1) expression at 9 uM after 48 hrs in presence of 100 uM AR inhibitor flutamide by western blotting analysis; format: functional, cell-based
# [26] = test system: LNCaP; experiment: Induction of apoptosis in human LNCaP C4-2 cells assessed as increase p21(Cip1) mRNA level at 9 uM by semiquantitative RT-PCR technique relative to control; format: functional
# [27] = test system: LNCaP; experiment: Induction of apoptosis in human LNCAP cells assessed as caspase-9 expression at 6 uM after 24 hrs cell pretreated with 100 uM AR inhibitor flutamide by western blot analysis; format: functional, cell-based
# [28] = test system: LNCaP; experiment: Induction of apoptosis in human LNCAP cells assessed as p21(Cip1) mRNA level at 6 uM in presence of 100 uM AR inhibitor flutamide by semiquantitative RT-PCR technique relative to control; format: functional
# [29] = test system: DU-145; experiment: Induction of apoptosis in human DU145 cells assessed as increase in cleaved PARP level at 6 uM after 48 hrs by western blotting analysis; format: functional, cell-based
# [30] = test system: DU-145; experiment: Induction of apoptosis in human DU145 cells assessed as formation of crescent shaped apoptotic bodies at 6 uM after 24 hrs by transmission electron microscopic analysis; format: functional, cell-based
# [31] = test system: DU-145; experiment: Induction of apoptosis in human DU145 cells assessed as DNA fragmentation at 6 uM after 48 hrs in presence of 5 mM autophagy inhibitor 3-methyladenine by TUNEL assay; format: functional, cell-based
# [32] = test system: LNCaP; experiment: Induction of apoptosis in human LNCAP cells assessed as increase in p21(Cip1) mRNA level at 6 uM by semiquantitative RT-PCR technique relative to control; format: functional
# [33] = test system: LNCaP; experiment: Induction of apoptosis in human LNCAP cells assessed as p21(Cip1) expression at 6 uM after 24 hrs cell pretreated with 100 uM AR inhibitor flutamide by western blot analysis; format: functional, cell-based
# [34] = Cell cycle distribution in human LNCaP C4-2 cells assessed as accumulation at sub-G1 phase at 9 uM for 48 hrs in presence of 100 uM AR inhibitor flutamide by propidium-iodide staining based flow cytometry; format: functional
# [35] = test system: LNCaP; experiment: Induction of apoptosis in human LNCaP C4-2 cells assessed as increase in caspase3 level at 9 uM after 48 hrs in presence of 100 uM AR inhibitor flutamide by western blot analysis; format: functional, cell-based
# [36] = test system: LNCaP; experiment: Induction of apoptosis in human LNCAP cells assessed as caspase3 level at 6 uM by western blot analysis; format: functional, cell-based
# [37] = test system: LNCaP; experiment: Induction of apoptosis in human LNCAP cells assessed as cleaved PARP level at 6 uM by western blot analysis; format: functional, cell-based
# [38] = test system: LNCaP; experiment: Induction of apoptosis in human LNCAP cells assessed as p21(Cip1) expression at 6 uM by western blotting analysis; format: functional, cell-based
smiles,measurement,setting,value
NC(=O)c1c(Br)nc2n(C3CCCC3)cnc(N)c1-2,Activity,[1],Active
same,Activity,[2],inactive
same,Activity,[3],inactive
same,Activity,[4],Active
same,Activity,[5],Active
same,Activity,[6],inactive
same,Activity,[7],inactive
same,Activity,[8],Active
same,Activity,[9],Active
same,Activity,[10],Active
same,Activity,[11],inactive
same,Activity,[12],inactive
same,Activity,[13],inactive
same,Activity,[14],Active
same,Activity,[15],Active
same,Activity,[16],Active
same,Activity,[17],Active
same,Activity,[18],30%
same,Activity,[19],Active
same,Activity,[20],Active
same,Activity,[21],Active
same,Activity,[22],Active
same,Activity,[23],inactive
same,Activity,[24],inactive
same,Activity,[25],Active
same,fold change (FC),[26],23
same,Activity,[27],inactive
same,fold change (FC),[28],0.38
same,Activity,[29],Active
same,Activity,[30],inactive
same,Activity,[31],inactive
same,fold change (FC),[32],56.98
same,Activity,[33],inactive
same,Activity,[34],Active
same,Activity,[35],Active
NC(=O)c1c(Br)n(C2CCCC2)c2ncnc(N)c12,Activity,[36],inactive
same,Activity,[37],inactive
same,Activity,[38],inactive
